Measurements as given in PMC11123841, “Discovery and Synthesis of Hydroxy-L-Proline Blockers of the Neutral Amino Acid Transporters SLC1A4 (ASCT1) and SLC1A5 (ASCT2)” (Molecules, 2024).
Like-named read-outs stand apart in the source and are kept apart here. One block for each molecule: values may come before it.

Experiments:
mSLC1A5 = molecular target: T1, mSLC1A5 (Mus musculus, UniProt P51912); assay: TEVC block of anion leak conductance in oocytes; format: cell-based
T1 construct: expressed in transfected cells; host or cells: Xenopus laevis oocytes (cRNA injection)
T1 sequence (P51912 1-553): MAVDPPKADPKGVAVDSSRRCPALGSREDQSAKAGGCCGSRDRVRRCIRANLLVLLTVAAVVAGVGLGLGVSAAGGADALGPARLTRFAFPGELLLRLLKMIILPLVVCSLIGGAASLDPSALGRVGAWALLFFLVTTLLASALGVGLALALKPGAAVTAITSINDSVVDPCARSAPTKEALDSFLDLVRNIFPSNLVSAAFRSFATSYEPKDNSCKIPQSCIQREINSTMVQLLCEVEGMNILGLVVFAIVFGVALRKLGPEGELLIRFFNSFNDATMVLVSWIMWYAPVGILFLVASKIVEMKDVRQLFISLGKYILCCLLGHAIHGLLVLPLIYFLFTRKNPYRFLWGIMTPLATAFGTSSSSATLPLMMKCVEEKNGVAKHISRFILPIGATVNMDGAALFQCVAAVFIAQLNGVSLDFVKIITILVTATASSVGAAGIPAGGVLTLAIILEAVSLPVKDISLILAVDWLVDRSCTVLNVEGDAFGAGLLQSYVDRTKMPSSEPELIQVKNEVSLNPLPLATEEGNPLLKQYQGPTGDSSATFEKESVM
From the text: (§1) The currents induced by substrates and blocked by hydroxyproline analogs shared a reversal potential shown in the current/voltage relationship consistent with the conductance originating from the same ion pore (Figure 3, inset). […] The observed dose–response relationships are independent of competing substrates, and thus provide a direct measure of the equilibrium inhibition constant (Ki). Each synthetic hydroxyproline analog was functionally assessed for its capacity to inhibit SLC1A4 and SLC1A5 leak currents with affinities reported in Table 1 as determined or approximated Ki.
(§2) Two-electrode voltage clamp (TEVC) transporter currents were recorded with a GeneClamp 500 amplifier and Digidata 1320A analog–digital interface (Molecular Devices, San Jose, CA, USA). Electrodes (0.2–1.0 MΩ) were filled with 3M KCl and the recording chamber was grounded with an agar bridge. Data were acquired with Axograph (v1.7.6) and LabChart (v7) and analyzed with Kaleidagraph software (v4.1) (Synergy, Reading, PA, USA). Uncoupled anion currents associated with the transport of substrate and block of SLC1A4 or SLC1A5 mediated leak conductance were recorded in the presence of Ringer with 50% substitution of NaCl by NaSCN to amplify the non-transported anion conductance.
(§3) Figure 3 AHPCs block a leak current in SLC1A4 and SLC1A5. […] Inset (A): The current and voltage relationship for SLC1A4 currents activated by Ala or blocked by 14b are determined by subtracting voltage jumps in buffer.

SLC1A4 [1] = molecular target: T2, SLC1A4 (Homo sapiens, UniProt P43007); assay: TEVC block of anion leak conductance in oocytes; format: cell-based
T2 construct: expressed in transfected cells; host or cells: Xenopus laevis oocytes (cRNA injection)
T2 sequence (P43007 1-532): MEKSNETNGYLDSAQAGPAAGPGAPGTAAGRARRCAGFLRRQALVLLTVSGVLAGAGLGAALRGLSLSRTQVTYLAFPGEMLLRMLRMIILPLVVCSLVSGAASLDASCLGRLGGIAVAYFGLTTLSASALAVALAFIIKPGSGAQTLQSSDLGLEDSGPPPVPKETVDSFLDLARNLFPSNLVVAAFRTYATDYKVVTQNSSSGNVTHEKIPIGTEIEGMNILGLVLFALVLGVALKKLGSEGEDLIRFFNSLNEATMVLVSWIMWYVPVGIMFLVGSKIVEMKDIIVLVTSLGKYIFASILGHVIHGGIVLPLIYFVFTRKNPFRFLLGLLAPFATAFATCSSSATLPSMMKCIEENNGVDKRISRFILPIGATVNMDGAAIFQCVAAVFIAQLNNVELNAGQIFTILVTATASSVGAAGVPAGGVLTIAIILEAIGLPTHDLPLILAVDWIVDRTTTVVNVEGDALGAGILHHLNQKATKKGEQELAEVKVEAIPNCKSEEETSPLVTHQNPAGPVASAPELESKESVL
From the text: as §1, §2, §3

SLC1A5 = molecular target: T3, SLC1A5 (Mus musculus, UniProt P51912); assay: [3H]L-alanine heteroexchange (trans-stimulation) in preloaded oocytes; format: cell-based; conditions: 3 µM BPOHP, 1 mM L-alanine
T3 construct: expressed in transfected cells; host or cells: Xenopus laevis oocytes (cRNA injection)
T3 sequence (P51912 1-553): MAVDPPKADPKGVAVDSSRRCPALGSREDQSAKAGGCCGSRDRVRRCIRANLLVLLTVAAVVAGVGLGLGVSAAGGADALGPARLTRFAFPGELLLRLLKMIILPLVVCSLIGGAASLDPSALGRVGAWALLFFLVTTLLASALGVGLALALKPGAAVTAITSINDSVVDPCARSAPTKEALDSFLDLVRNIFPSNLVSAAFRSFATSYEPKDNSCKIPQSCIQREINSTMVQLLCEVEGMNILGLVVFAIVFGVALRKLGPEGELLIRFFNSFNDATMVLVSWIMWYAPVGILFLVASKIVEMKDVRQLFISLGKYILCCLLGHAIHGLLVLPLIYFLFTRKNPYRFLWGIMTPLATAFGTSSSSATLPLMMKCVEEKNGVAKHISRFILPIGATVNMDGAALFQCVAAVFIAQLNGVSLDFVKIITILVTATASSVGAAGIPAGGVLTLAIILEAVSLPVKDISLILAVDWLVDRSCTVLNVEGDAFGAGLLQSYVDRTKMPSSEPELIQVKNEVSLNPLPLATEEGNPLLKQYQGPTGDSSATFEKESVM
Description: (§4) Uptake was halted by washing 3 times with 4 °C ND96 buffer. Oocytes were then lysed in 0.1% Triton X-100, and radioactivity was counted via liquid scintillation. Dose response curves were generated by fitting fractional inhibition (I) to the expression I = Imax × [inhibitor]/([inhibitor] + IC50).

SLC1A4 [2] = molecular target: T2, SLC1A4; assay: as above; format: cell-based; conditions: 3 µM BPOHP, 1 mM L-alanine
Description: as §4

ASCT = conditions: extracellular 300 µM; cited from earlier work
SLC1A4 [3] = conditions: concentrations up to 1 mM, oocytes expressing SLC1A4; cited from earlier work

SMILES: C[C@H](N)C(=O)O [L-Ala, L-alanine, reference compound]
[3H]L-alanine exchange (SLC1A5): induces exchange | [3H]L-alanine exchange (SLC1A4 [2]): induces exchange

SMILES: O=C(O)[C@@H]1CCCN1 [L-proline]
heteroexchange release of intracellular radiolabeled ASCT substrates (ASCT): capable of inducing heteroexchange release | chloride currents (SLC1A4 [3]): does not elicit detectable chloride currents

Further lines, results first:

Ki (mSLC1A5; SLC1A5, read-out: Ki): > 500 µM | Ki (SLC1A4 [1]; SLC1A4, read-out: Ki): > 500 µM
SMILES: CO[C@H]1CN[C@H](C(=O)O)[C@@H]1O [17a]

Ki (mSLC1A5; mSLC1A5, from dose–response of blocked anion conductance, compounds tested only once without standard error, read-out: SLC1A5 Ki): ~400 µM | Ki (SLC1A4 [1]; from dose–response of blocked anion conductance, compounds tested only once without standard error, read-out: SLC1A4 Ki): 505 ± 105 µM
SMILES: CC(C)O[C@H]1CN[C@H](C(=O)O)[C@@H]1O [17b]

Ki (mSLC1A5; SLC1A5, read-out: Ki): > 500 µM | Ki (SLC1A4 [1]; SLC1A4, read-out: Ki): > 500 µM
SMILES: O=C(O)[C@H]1NC[C@H](OCc2ccccc2)[C@H]1O [17c, cis-3-hydroxy-trans-4-benzyloxy-L-proline]
